Assay results as given in US20130143969A1 (THE OHIO STATE UNIVERSITY, priority 2010, published 2013).

Legend:
[1] = system: MV4-11 leukemia cell-engrafted animal model; test: Xenograft animal model, anti-tumor growth activity; type: in vivo, athymic nu/nu mice
Procedure: Female athymic nu/nu mice (4-6 weeks old, 18-22 g) were obtained from Charles River Laboratory (Wilmington, Mass.) and acclimated for 1 week in a pathogen-free enclosure before start of study. Animals were given sterile rodent chow and water ad libitum and were housed in sterile filter-top cages with 12 hour light/dark cycles. All experiments were conducted in accordance with the guidelines of the Association for Assessment and Accreditation of Laboratory Animal Care International. MV4-11 cells (5×10^6 cells per mouse) were suspended with 50% Matrigel (Becton Dickinson) and subcutaneously implanted into both right and left flanks of the athymic nu/nu mice. When tumors were grown between 100 to 200 mm^3, treatments were initiated. Mice were randomly assigned into two cohorts for the anti-tumor growth activity studies, with 6 mice per group. […] Tumor volume was calculated by using the equation V=2×A×B^2/3, where A is the longer (horizontal as width) diameter (mm) and B is the shorter (perpendicular as depth) diameter (mm) and expressed in cubic millimeter. After 4 weeks, mice were euthanized and tumor tissues were excised, snapfrozen in liquid nitrogen, weighed and stored in a −80° C. freezer until analysis.

DNMT1 [2] = test: Ex vivo DNMT1 mRNA and protein in AML patient primary blast cells; type: cell-based, human
Procedure: (§1) Cell Cycle and Apoptosis Analysis: MV4-11, ML-1, HL-60 and K562 leukemia cell lines were cultured in RPMI medium (VWR International, Inc., West Chester, Pa.) supplemented with 10% fetal bovine serum (Invitrogen, Carlsbad, Calif.) and 1% (v/v) penicillin/streptomycin (Invitrogen Life Technologies; Carlsbad, Calif.) antibiotic solution at 37° C. in an incubator under 5% CO2 atmosphere. […] The cell cycle and apoptosis of MV4-11 cells was analyzed on a BD FACS Calibur (Beckman Coulter, Fullerton, Calif.) according to the standard protocol provided by the manufacturer.
(§2) Cells or tumor tissues were homogenized and lysed in ice-cold lysis buffer (20 mM, pH 7.0 HEPES, 150 mM NaCl, 0.1% NP40 supplemented with 1 mM β-glycerophosphate, 1 mM Na3VO4, 1 mM NaF, 1 mM benzamide and 1 mM phenylmethylsulfonyl fluoride) with protease inhibitors (Protease Inhibitor cocktail Set III, Calbiochem-Novabiochem Corporation, La Jolla, Calif.), and incubated on ice for 20 mM. […] The immunoblotted proteins were detected by ECL reagent (GE Healthcare Bio-Sciences Corp., Piscataway, N.J.).
Quantitative RT-PCR was used to quantify the mRNA levels of DNMT1, DNMT3a, DNMT3b, p15INK4B and p21. […] Quantitative real-time PCR reactions were performed in triplicate using Taqman gene expression assay (Applied Biosystems) with an ABI prism 7700 detector (Applied Biosystems). […]

DNMT3b = test: Western blot of DNMT3b protein in MV4-11 cells; type: cell-based
Procedure: as §1, §2

DNMT1 [3] = test: Western blot of DNMT1 protein in leukemia cells; type: cell-based
Procedure: as §1, §2

DNMT1 [4] = test: Quantitative RT-PCR of DNMT1 transcripts in MV4-11 cells; type: cell-based; parameters: dose or concentration left out as unconfirmed; conditions: curcumin
Procedure: as §1, with “atmosphere. For the ex-vivo studies, mononuclear cells obtained from bone marrow (BM) of patient with AML were prepared by Ficoll-Hypaque (Nygaard) gradient centrifugation and cultured with serum-free expansion medium (SFEM) (StemCell technologies, Vancouver, BC) supplemented with GM-CSF (50 ng/ml), IL-3 (20 ng/ml), IL-6 (20 ng/ml) and SCF ([…]).” for “atmosphere.”
Quantitative RT-PCR was used to quantify the mRNA levels of DNMT1, DNMT3a, DNMT3b, p15INK4B and p21. […] Quantitative real-time PCR reactions were performed in triplicate using Taqman gene expression assay (Applied Biosystems) with an ABI prism 7700 detector (Applied Biosystems). The target gene values were normalized to the values of internal control GAPDH or 18 S, and expressed as relative percent change (100×2^(˜ΔΔCt)) over non-treated samples.

[5] = In-vitro stability of curcumin in mouse plasma at 37° C; type: in vitro ADME
Text: Therefore, all mouse blood and plasma samples have to be processed on ice to avoid potential degradation for its pharmacokinetic studies.

DNMT3a = DNMT3a mRNA in MV4-11 engrafted tumor tissues; type: in vivo; conditions: MV4-11 engrafted mice, curcumin i.p. 100 mg/kg
Procedure: Quantitative RT-PCR was used to quantify the mRNA levels of DNMT1, DNMT3a, DNMT3b, p15INK4B and p21. Total RNA was extracted with Trizol reagent (Invitrogen, Carlsbad, Calif.) and reverse transcribed by reverse transcriptase (Invitrogen). Quantitative real-time PCR reactions were performed in triplicate using Taqman gene expression assay (Applied Biosystems) with an ABI prism 7700 detector (Applied Biosystems). The target gene values were normalized to the values of internal control GAPDH or 18 S, and expressed as relative percent change (100×2^(˜ΔΔCt)) over non-treated samples.
Female athymic nu/nu mice (4-6 weeks old, 18-22 g) were obtained from Charles River Laboratory (Wilmington, Mass.) and acclimated for 1 week in a pathogen-free enclosure before start of study. Animals were given sterile rodent chow and water ad libitum and were housed in sterile filter-top cages with 12 hour light/dark cycles. All experiments were conducted in accordance with the guidelines of the Association for Assessment and Accreditation of Laboratory Animal Care International. […] Tumor volume was calculated by using the equation V=2×A×B^2/3, where A is the longer (horizontal as width) diameter (mm) and B is the shorter (perpendicular as depth) diameter (mm) and expressed in cubic millimeter. […]

[6] = system: p15^INK4B promoter region; test: DNA methylation analysis of the p15INK4B promoter region (LC-MS/MS); type: cell-based; conditions: MV4-11 cells, 10 μM curcumin, 72 hours
Procedure: Genomic DNA isolated from MV4-11 cells was treated with bisulfite using the Epi methylation Kit (Qiagen, Minneapolis, Minn.) according to the instruction from the manufacturer and followed by PCR amplification as follows. The sequences of p15^INK4B primers were: forward 5′-GGGAGGGTAATGAAGTTGAGTTTA-3′ (SEQ ID NO. 1), and reverse 5′-ACCCTAAAACCCCAACTACCTAAAT-3′ (SEQ ID NO. 2). PCR amplifications were performed as follows: 95° C. for 5.5 min, 55° C. for 30s for 5 cycles, and 52° C. for 30 s for 38 cycles, 72° C. for 30s for 38 cycles, with a final step at 72° C. for 1 min. PCRs were carried out in a 100 μl volume containing 10 μl of buffer (10×), 2 μL of each primer (10 μM), 2 μL of (10 mM) dNTPs, 2 U of Platinum Taq DNA polymerase (Invitrogen, Carlsbad, Calif.), 70.6 μL ddH2O and 10 μL of bisulfite treated DNA in a GeneAmp 9700 thermal cycler (Perkin-Elmer, Norwalk, Conn.). PCR products were purified using QIAquick columns and eluted in water. A 500 ng aliquot of the PCR product was incubated with 25 UM. […] Fully methylated PCR products were purified using the QIAquick PCR Purification kit (Qiagen, Minneapolis, Minn.), according to the manufacturer's instructions and 200 ng of the purified DNA was hydrolyzed and the concentrations of 5mdC and 2dC in the hydrolysate were measured by LC-MS/MS using the conditions as described previously.

[7] = day 29 after the treatment, i.p. 100 mg/kg

COc1cc(/C=C/C(=O)CC(=O)/C=C/c2ccc(O)c(OC)c2)ccc1O [curcumin]
tumor size decrease ([1]; MV4-11 engrafted nude mice (summary)): about 65%
reduction of tumor size [1, 7]: 3854 mm^3
reduction of tumor weight [1, 7]: 65%
body weight ([1]; i.p. 100 mg/kg five days a week, 4 weeks): No significant weight loss
decrease of tumor growth rate compared with control ([1]; i.p. 100 mg/kg, linear mixed effect model): 142.5 mm^3 per day
life span of MV4-11 engrafted nude mice ([1]; pilot study): 6 weeks
average tumor weight ([1]; treatment group): 3.6 g
DNMT1 mRNA (DNMT1 [2]): down-regulate
DNMT1 protein level (DNMT1 [2]): down-regulate
DNMT3b protein level reduction (DNMT3b): 50%
DNMT1 protein level decrease (DNMT1 [3]; ML-1 cells): 50%
DNMT1 protein level (DNMT1 [3]; MV4-11 cells, 10 μM): completely depleted
decrease in the level of DNMT1 transcripts compared to untreated control (DNMT1 [4]; 48 hours): 70%
decrease in the level of DNMT1 transcripts compared to untreated control (DNMT1 [4]; 72 hours): 90%
half-life [5]: 23.6 min
curcumin level (below detection limit) ([5]; by 4 hour): < 1 ng/mL
curcumin decomposed ([5]; in 2 hours): more than 97%
mRNA level of DNMT3a in engrafted tissues (DNMT3a): significantly decreases
decrease of p15INK4B promoter methylation level [6]: about 40%
